Reference: patent US11142533B2, “Macrocycles for use in treating disease” (TURNING POINT THERAPEUTICS, INC., priority 2019, dated 2021)
Values after ≈ are worked out from the molar mass of the structure shown. Read-outs that look alike come from different tables or passages of the source.

Tests used:
[1] = Liver microsomal stability; type: in vitro ADME; conditions: pH 7.4, 1 μM compound, 0.5 mg/mL liver microsome protein
Experimental: The test compound stock solution was prepared by weighing 1.07 mg and dissolving in 0.261 mL of DMSO to achieve the concentration of 10 mM. Working solution of the test compound was prepared by diluting stock solution using DMSO to yield the concentration of 300 μM.
The assay was carried out in 96-well microtiter plates. In each well, the reaction mixture (25 μL) contained the test compound at the final concentration of 1 μM, 0.5 mg/mL liver microsome protein, and 1 mM NADPH in 100 mM potassium phosphate, pH 7.4 buffer with 3.3 mM MgCl2. The mixtures were incubated in duplicate at 37° C. for 0, 15, 30 or 60 minutes, and 150 μL of quench solution (acetonitrile with 0.1% formic acid) with internal standard (bucetin for positive ESI mode) was added into each well of reaction to terminate the reaction. The plates were then sealed and centrifuged at 4° C. for 15 minutes at 4000 rpm. The resulting supernatant was transferred to fresh plates for LC-MS/MS analysis of the test compounds. Verapamil was used as the positive control to validate the assay system.
All samples were analyzed with LC-MS/MS using an AB Sciex API 4000 instrument, coupled to a Shimadzu LC-20AD LC Pump system. Analytical samples were separated using a Waters Atlantis T3 dC18 reverse phase HPLC column (20 mm×2.1 mm) at a flow rate of 0.5 mL/min. The mobile phase consisted of 0.1% formic acid in water (solvent A) and 0.1% formic acid in acetonitrile (solvent B).
The extent of metabolism was calculated based on the disappearance of the test compound, compared to its initial concentration. The initial rates of clearance of test compounds were calculated using linear regression plot of semi-log % remaining of compounds versus time. The elimination rate constant (equals to negative slope) of the linear regression plot was then used to determine t112 and the intrinsic clearance (CLInt) using the following formula: k=−slope t1/2=0.693/k CLint=k/Cprotein
Where Cprotein (mg/mL) is the microsomal protein concentration in the incubation system.

[2] = molecular target: T1, Ba/F3 cell-derived tumors with the EML4-ALK G1202R fusion (Homo sapiens, UniProt Q9UM73, G1202R); conditions: after 7 days of treatment
T1 sequence (Q9UM73 with tags, fused parts or gaps G1202R): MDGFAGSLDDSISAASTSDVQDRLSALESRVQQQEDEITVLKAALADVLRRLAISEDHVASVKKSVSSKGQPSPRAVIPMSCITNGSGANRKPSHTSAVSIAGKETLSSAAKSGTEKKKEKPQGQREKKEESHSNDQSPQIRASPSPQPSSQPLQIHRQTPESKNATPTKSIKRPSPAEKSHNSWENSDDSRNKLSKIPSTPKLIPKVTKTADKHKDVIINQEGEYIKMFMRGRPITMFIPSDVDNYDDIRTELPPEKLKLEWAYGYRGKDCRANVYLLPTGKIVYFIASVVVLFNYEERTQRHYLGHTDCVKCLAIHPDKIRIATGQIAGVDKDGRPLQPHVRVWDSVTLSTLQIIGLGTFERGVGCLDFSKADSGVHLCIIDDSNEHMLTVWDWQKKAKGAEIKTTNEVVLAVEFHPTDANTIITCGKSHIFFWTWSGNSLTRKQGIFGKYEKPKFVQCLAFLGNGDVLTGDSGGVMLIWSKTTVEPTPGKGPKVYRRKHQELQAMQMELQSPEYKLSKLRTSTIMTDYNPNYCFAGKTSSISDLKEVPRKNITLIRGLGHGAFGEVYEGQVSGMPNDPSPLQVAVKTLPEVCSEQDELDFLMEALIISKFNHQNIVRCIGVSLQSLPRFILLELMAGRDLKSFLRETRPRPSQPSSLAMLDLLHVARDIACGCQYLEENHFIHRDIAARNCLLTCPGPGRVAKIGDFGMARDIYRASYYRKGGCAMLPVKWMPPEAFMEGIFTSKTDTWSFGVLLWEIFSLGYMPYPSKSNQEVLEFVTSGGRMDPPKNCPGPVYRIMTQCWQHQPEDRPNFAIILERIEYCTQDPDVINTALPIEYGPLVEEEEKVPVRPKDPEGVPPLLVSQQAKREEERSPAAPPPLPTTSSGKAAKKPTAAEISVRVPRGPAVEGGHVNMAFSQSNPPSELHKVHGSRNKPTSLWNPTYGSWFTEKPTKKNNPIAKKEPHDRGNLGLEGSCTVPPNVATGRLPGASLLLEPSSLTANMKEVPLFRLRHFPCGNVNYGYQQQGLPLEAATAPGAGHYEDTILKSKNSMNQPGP

[3] = Solubility test in phosphate buffer; type: physicochemical; conditions: aqueous buffer, thermodynamic from solid; phosphate buffer pH 7.4, room temperature
Experimental: Aliquot of 1.035 mL phosphate buffer (PB) (pH 7.4) was added into 2.07 mg of the test compound (for a 2 mg·mL^−1 upper limiting solubility determination) in a 1.5 mL tubes. The mixture was ultrasonicly treated for 10 min and rotated on rotator at room temperature for more than 8 hr. After rotation, the tube was ultrasonicly treated for 10 min and centrifuged at 13000 rpm for 15 min. 0.3 mL of the supernatant was transferred into a 0.6 mL tube and discarded after rotated for 5 min for rinsing, then about 0.6 mL of the residual supernatant was transferred into the rinsed tube and centrifuged again at 13000 rpm for 15 min. The supernatant after every centrifugation was appropriately diluted and transferred for LC-MS/MS analysis where a standard curve was constructed with 7 concentration levels (2, 4, 10, 20, 40, 100 and 200 μg mL^−1) and used for the quantitation of the analyte in PB.

KG-1 cell (OP2-FGFR1) = KG-1 cell (OP2-FGFR1) (Homo sapiens, UniProt P11362); experiment: Cell proliferation assay (CellTiter-Glo)
KG-1 cell (OP2-FGFR1), sequence (P11362 456-822 limits assumed): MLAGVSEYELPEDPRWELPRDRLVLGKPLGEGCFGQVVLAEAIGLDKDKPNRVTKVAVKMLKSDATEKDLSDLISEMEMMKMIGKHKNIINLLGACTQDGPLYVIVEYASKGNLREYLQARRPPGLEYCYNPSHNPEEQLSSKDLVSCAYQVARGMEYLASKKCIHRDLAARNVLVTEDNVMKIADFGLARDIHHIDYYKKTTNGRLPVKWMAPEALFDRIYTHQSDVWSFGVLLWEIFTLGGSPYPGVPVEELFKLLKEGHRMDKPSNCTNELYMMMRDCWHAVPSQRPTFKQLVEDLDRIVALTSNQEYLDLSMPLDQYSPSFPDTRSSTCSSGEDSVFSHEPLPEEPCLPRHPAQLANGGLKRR

[4] = Mouse pharmacokinetic study; type: in vivo; conditions: single oral dose (dose level not given), plasma
Experimental: To prepare 1 L of the vehicle solution (0.5% CMC and 1.0% Tween 80), 10 g of Tween 80 was mixed with 985 mL of water into a 1 L bottle. The mixture was stirred until Tween 80 was completely dissolved. With continued stirring, 5 g of CMC was very slowly sprinkled into the solution. Stirring was continued until all CMC was dissolved, which might take several hr. The resulting vehicle solution was stored at 4° C.
The compound was suspended in the vehicle solution and the mice were orally administrated with a single dose of the compound at the selected dose level. The blood samples were collected according to the defined time table into tubes containing K2-EDTA, followed by gentle mixing to assure distribution of the anti-coagulant. Immediately after the blood sample was collected and mixed, it was placed on ice. The samples were then centrifuged at 4° C. for 10 minutes at 5,000 RPM. The plasma was harvested into pre-labeled tubes and stored at −80° C. until analyzed by LC-MS/MS.

[5] = female, mouse, liver microsomes

Row | microsomal CLint at 1 µM [1, 5] | microsomal CLint at 1 µM ([1]; female, rat, liver microsomes) | microsomal CLint at 1 µM ([1]; human, pooled liver microsomes) | Tumor growth inhibition (TGI) ([2]; 2 mg/kg BID oral) | Tumor growth inhibition (TGI) ([2]; 5 mg/kg BID oral) | Tumor growth inhibition (TGI) ([2]; 10 mg/kg BID oral) | solubility [3] | IC50 (KG-1 cell (OP2-FGFR1)) | AUC [4] | Cmax [4] | Tmax [4] | Tumor growth inhibition (TGI) ([2]; 3 mg/kg BID oral) | Compound | body weight ([2]; 2, 5, 10 mg/kg BID) | body weight ([2]; 3 and 10 mg/kg BID)
1 | 11 µL/min/mg | 1.5 µL/min/mg | 8.3 µL/min/mg | 64% | 120% | 200% | 3.3 µg/mL (≈ 7.38 µM) | 554 nM | 11900 ng·h/mL | 1750 ng/mL | 2 h |  | CC1(C)COc2ccc(F)cc2CN2c3nc4c(cnn4cc3OC[C@H]2C(F)F)C(=O)N1 [Compound 1, (4S)-4-(Difluoromethyl)-8-fluoro-13,13-dimethyl-3,4,13,14-tetrahydro-6H-18,1-(metheno)[1,4]oxazino[3,4-i]pyrazolo[4,3-f][1,4,8,10]benzoxatriazacyclotridecin-15(12H)-one] | no body weight loss | 
2 | 25 µL/min/mg | 3.5 µL/min/mg | 8.8 µL/min/mg |  |  | 77% | 2.6 µg/mL (≈ 5.66 µM) | 3.8 nM | 14600 ng·h/mL | 2510 ng/mL | 2 h | 51% | O=C1NCC2(CC2)COc2ccc(F)cc2CN2c3nc4c1cnn4cc3OC[C@H]2C(F)F [Compound 2, (16′S)-16′-(Difluoromethyl)-12′-fluoro-4′H,5′H,6′H,8′H,14′H,16′H,17′H-spiro[cyclopropane-1,7′-[1,19](metheno)[1,4]oxazino[3,4-j]pyrazolo[4,3-g][1,5,9,11]benzoxatriazacyclotetradecin]-4′-one] |  | no body weight loss
